Reference: the NIST ThermoML archive (doi:10.1016/j.jct.2015.08.014)

Experiment: xn = mol fraction of the nth substance listed
Conditions: 273.15 K, 100 kPa, Liquid; for electrical conductivity: Alternating current cell with electrodes; for viscosity: Capillary tube (Ostwald / Ubbelohde) method

CCCC[N+]1(C)CCCC1.N#CN=C=[N-] [1-butyl-1-methylpyrrolidinium dicyanamide] + O=C1CCCO1
Conditions | electrical conductivity [S/m] | viscosity [mPa·s]
x1 = 0.0463 | 0.977 | –
x1 = 0.0987 | 1.43 | 4.69
x1 = 0.1449 | 1.56 | –
x1 = 0.1859 | 1.634 | 7.2
x1 = 0.2493 | 1.517 | –
x1 = 0.3029 | 1.42 | 12.03
x1 = 0.3845 | 1.25 | –
x1 = 0.4985 | 1.03 | 24.9
x1 = 0.6954 | 0.742 | 45.65
x1 = 0.9013 | 0.562 | 76.07
x1 = 1 | 0.523 | 93.95

electrical conductivity [S/m]
Conditions | Frequency=0.0005 MHz | Frequency=0.001 MHz | Frequency=0.0015 MHz | Frequency=0.002 MHz | Frequency=0.0025 MHz | Frequency=0.003 MHz | Frequency=0.00347222 MHz | Frequency=0.004 MHz | Frequency=0.00446429 MHz
x1 = 0.0463 | 0.97 | 0.973 | 0.975 | 0.975 | 0.976 | 0.976 | 0.977 | 0.977 | 0.977
x1 = 0.0987 | 1.41 | 1.42 | 1.42 | 1.42 | 1.42 | 1.42 | 1.42 | 1.42 | –
x1 = 0.1449 | 1.56 | 1.56 | 1.56 | 1.56 | 1.56 | 1.56 | 1.56 | 1.56 | –
x1 = 0.1859 | 1.619 | 1.625 | 1.627 | 1.629 | 1.63 | 1.631 | 1.632 | 1.632 | –
x1 = 0.2493 | 1.513 | 1.515 | 1.515 | 1.516 | 1.516 | 1.516 | 1.516 | 1.516 | –
x1 = 0.3029 | 1.42 | 1.42 | 1.42 | 1.42 | 1.42 | 1.42 | 1.42 | 1.42 | –
x1 = 0.3845 | 1.25 | 1.25 | 1.25 | 1.25 | 1.25 | 1.25 | 1.25 | 1.25 | –
x1 = 0.4985 | 1.03 | 1.03 | 1.03 | 1.03 | 1.03 | 1.03 | 1.03 | 1.03 | –
x1 = 0.6954 | 0.741 | 0.741 | 0.741 | 0.742 | 0.742 | 0.742 | 0.742 | 0.742 | –
x1 = 0.9013 | 0.561 | 0.561 | 0.562 | 0.562 | 0.562 | 0.562 | 0.562 | 0.562 | –
x1 = 1 | 0.522 | 0.522 | 0.522 | 0.522 | 0.522 | 0.522 | 0.523 | 0.523 | –
